Assay results: PubChem BioAssay AID179 (DTP/NCI, 2004)
“And” between values parts separate entries of the source, which are not always exact repeats. Identical values can stand only once. The source made the active and inactive calls.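 How the source made its calls: active means compounds giving half or more protection of infected cells from virus-caused growth loss, again on retest; inactive means the rest.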 Where a SMILES comes first, the peptide text is derived from it. Bridges are numbered along the chain shown (N, C = ends).

Tested on: CEM cells HIV-1 protection, formazan growth assay
Test: NCI AIDS Antiviral Assay
Details: for IC50: measured here: growth of uninfected CEM cells
Summary of the method: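 Protection of CEM cells against HIV-1 was scored from cell growth (soluble formazan) across five concentrations, with parallel uninfected cells. Lack of protection may reflect toxicity.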

CCCCCCCCCCCCCCCC(=O)NCC(COP(=O)([O-])OCC[N+](C)(C)C)OCC (stereo not drawn)
outcome: inactive

O=S1(=O)C2C=CCC1C(c1ccccc1)CC2 (stereo not drawn)
EC50: > 1000 µM
IC50: > 1000 µM

CCCCCNC(=O)C1C(=O)N(CCCCC)C(=O)/C1=N\N (stereo not drawn)
EC50: > 12 µM
IC50: > 12 µM

COC(=O)C1(C(=O)OC)CC(=O)c2c(OC(=O)c3cccc(OC)c3C#N)ccc(OC(=O)c3cccc(OC)c3C#N)c2C1
EC50: > 200 µM
IC50: 29.5 µM

Cc1ccc(S(=O)(=O)C(CC(=O)N2CCCC2)C(=O)c2ccccc2)cc1 (stereo not drawn)
EC50: > 93.3 µM
IC50: 15.5 µM

CCCC[n+]1cc(C(N)=O)cc2ccccc21
EC50: 0.0692 µM
IC50: 219 µM

COC(=O)c1ccc(CS(=O)(=O)c2ccccc2)cc1
EC50: > 12.9 µM
IC50: > 12.9 µM

CN(C)c1ccc(/C=C(\C#N)c2ccc(F)cc2)cc1
EC50: > 20 µM
IC50: 1.07 µM

CC1(O)c2ccccc2CCc2ccccc21
EC50: > 32.4 µM
IC50: > 32.4 µM

Cc1cc(Cc2cc(C)c(O)c(C(=O)O)c2)cc(C(=O)O)c1O
EC50: 380 µM
IC50: 417 µM

CCOC(=O)c1ccc(-c2cccs2)n1C
EC50: > 200 µM
IC50: 97.7 µM

OC1CC2C=CCC(C1)C2 (stereo not drawn)
outcome: inactive

COC(=O)C1CCCN1 (stereo not drawn)
outcome: inactive

CN1CCN(CCCN2c3ccccc3Sc3ccc(C(F)(F)F)cc32)CC1
EC50: > 200 µM
IC50: 9.55 µM and 4.37 µM

COCCOCCOCCOCCOCCOCCOCCOCCOCCOCCOCCOCCOCCOCCOCCOCCOCC(=O)N(CCn1ccc(NC(c2ccccc2)(c2ccccc2)c2ccccc2)nc1=O)CCn1ccc(NC(c2ccccc2)(c2ccccc2)c2ccccc2)nc1=O
EC50: 20 µM
IC50: 22.9 µM

COc1cc2cc[n+]3c4cc(OC)c(OC)cc4c(C)cc3c2cc1OC
outcome: inactive

CC(=O)O/C=C\OC1CCCC1(c1ccccc1)c1ccccc1 (stereo not drawn)
EC50: > 200 µM
IC50: 1.38 µM

COC12CCCC1S(=O)(=O)C2 (stereo not drawn)
outcome: inactive

CN1CC[C@]2(C)c3c(O)cccc3CC3CCCC1C32C (stereo partly drawn)
outcome: inactive

Nc1nc(=S)[nH]c(C(=O)Nc2nccs2)c1-c1ccccc1
EC50: > 21.9 µM
IC50: > 21.9 µM

CC1(/C=C/CCSc2ccccc2)CC(=O)C2CC1C2(C)C (stereo not drawn)
EC50: > 200 µM
IC50: 7.94 µM

Cc1cc(S(=O)(=O)NC2=NC(c3ccccc3)c3ccccc3N2)c(S)cc1Cl (stereo not drawn)
EC50: > 200 µM
IC50: > 200 µM

Cc1c(Cl)ccc2c1NC(=O)C2(O)CC(=O)c1ccc(Cl)cc1 (stereo not drawn)
EC50: > 31.6 µM
IC50: > 31.6 µM

CC1CC[C@]2(C(=O)O)CCC3(C)C(=C2[C@H]1C)C=CC1[C@@]2(C)CC[C@H](O)C(C)(C)C2CC[C@]13C (stereo partly drawn)
EC50: > 100 µM
IC50: > 100 µM

CCOC(=O)c1sc(Nc2cc(Cl)ccc2Cl)nc1C
outcome: inactive

CN1C2CCC1CC(OC(=O)C(CO)c1ccccc1)C2 (stereo not drawn)
EC50: > 200 µM
IC50: > 200 µM

CCCCCC(CO)C(O)(C(F)(F)F)C(F)(F)F (stereo not drawn)
EC50: > 200 µM
IC50: 70.8 µM

CC1=CP(=O)(c2ccccc2)CC1 (stereo not drawn)
EC50: 0.0631 µM
IC50: > 200 µM

CC1(C)N=C(C(N)=O)c2ncn(Cc3ccccc3)c2N1
EC50: > 200 µM
IC50: > 200 µM

Nc1ncc(/C=N/O)c(NCC2(CO)CC(CCc3ccccc3)C2)n1 (stereo not drawn)
EC50: > 2 µM
IC50: 0.603 µM

O=C1Cc2c([nH]c3ccccc23)-c2ccccc2N1
EC50: > 105 µM
IC50: 69.2 µM

COC(=O)C(=O)C(C(=O)C1=NS(=O)(=O)c2cc(S(N)(=O)=O)c(Cl)cc2N1)c1nc2ccc(C(=O)c3ccccc3)cc2[nH]c1=O (stereo not drawn)
EC50: > 195 µM
IC50: 49 µM

COc1ccc(NC(=O)/C(N=O)=C(/C)O)cc1
EC50: > 1050 µM
IC50: > 1050 µM

O=C1C=CC(=O)C(CNc2ccc(C(=O)OC34CC5CC(CC(C5)C3)C4)cc2)=C1
EC50: > 200 µM
IC50: 10.5 µM

C[C@]12C[C@@H](c3ccccc3)Nc3ccccc3N1C(c1ccccc1)=NO2
EC50: > 200 µM
IC50: 30.9 µM

O=C(c1ccc(S(=O)(=O)c2ccccc2)cc1)c1ccc(S(=O)(=O)c2ccccc2)cc1
EC50: > 200 µM
IC50: > 200 µM

CC(CN(C)C)Nc1c2ccccc2nc2cccc([N+](=O)[O-])c12 (stereo not drawn)
EC50: > 2 µM
IC50: 0.977 µM

CC1=NC2(CCCCC2)N(Cl)C(=O)C1SC#N (stereo not drawn)
EC50: > 200 µM
IC50: 17.8 µM

O=C1/C(=C/c2ccc3c(c2)CCC3)Cc2cc3c(cc21)CCC3
EC50: > 200 µM
IC50: > 200 µM

CC1(C23CC4CC(CC(C4)C2)C3)n2c(=O)n(-c3ccccc3)c(=O)n2C1(C)C12CC3CC(CC(C3)C1)C2 (stereo not drawn)
EC50: > 50.1 µM
IC50: > 50.1 µM

COc1cccc(C2c3cc4c(cc3OC(N3CCOCC3)C2C)OCO4)c1O (stereo not drawn)
EC50: > 200 µM
IC50: 3.09 µM

O=c1c2cc([N+](=O)[O-])ccc2[nH]n1Cc1ccccn1
EC50: > 200 µM
IC50: > 200 µM

Cc1ccc(Cl)c(NC(=O)C(=O)C(C(=O)c2ccncc2)C2OC(=O)c3ccccc32)c1 (stereo not drawn)
EC50: > 562 µM
IC50: 166 µM

CCOC(=O)C(NC(=O)Nc1ccc(Cl)cc1)(OC)C(F)(F)F (stereo not drawn)
outcome: inactive

CN(C)c1nc2nonc2nc1Nc1ccccc1
EC50: > 200 µM
IC50: > 200 µM

COc1ccc(S(=O)(=O)N[C@@H](C(=O)O)c2ccccc2)cc1
outcome: inactive

N/N=C(\c1nc2ccc([N+](=O)[O-])cc2[nH]c1=O)C(O)c1ccc(Cl)c(Cl)c1 (stereo not drawn)
EC50: > 339 µM
IC50: 145 µM

Cc1nc2c(nc1C)C(=O)C(N)=CC2=O
outcome: inactive

O=C(c1cccs1)N(C(=S)N1CCN(c2ccccn2)CC1)c1ccccc1
EC50: > 17.8 µM
IC50: > 17.8 µM

CC(=O)O[C@H]1[C@H](OC(C)=O)[C@@H](CN=[N+]=[N-])OCO[C@@H]1CN=[N+]=[N-]
outcome: inactive

CCOC(=O)/C(=C\c1ccccc1)C(=O)O
EC50: > 1120 µM
IC50: 240 µM

Cc1cc(S(=O)(=O)NC2=NCC(C)(C)CN2)c(S)cc1Cl
EC50: > 200 µM
IC50: 87.1 µM

CC(C)N(/C(F)=N\C(=O)Nc1ccccc1C(F)(F)F)C(C)C
EC50: > 200 µM
IC50: 38.9 µM

CCCCCC(Nc1nncs1)Nc1nncs1
EC50: > 200 µM
IC50: > 200 µM

O=S1(=O)c2ccccc2N2CCCc3cc(Cl)cc1c32
EC50: > 200 µM
IC50: > 200 µM

COc1ccc(Nc2nnc(CCCCCCCCc3nnc(Nc4ccc(OC)cc4)o3)o2)cc1
EC50: > 200 µM
IC50: > 200 µM

COC(=O)/C=C\C(C#N)(C#N)N=Cc1ccsc1
EC50: > 2 µM
IC50: 0.759 µM

CCCCCCCc1ccc(OC2OC(CO)C(O)C(O)C2O)cc1 (stereo not drawn)
EC50: > 126 µM
IC50: 29.5 µM and 10.2 µM

Cc1c(C(=O)NCCO)[n+](=O)c2ccccc2n1[O-]
EC50: > 135 µM
IC50: > 135 µM

O=[N+]([O-])c1ccc(N=Nc2ccc(N=C=S)cc2)cc1
EC50: > 200 µM
IC50: 110 µM

CC1(C)CNCC2(C)OCCCCCCCCCCOC3(C)CNCC(C)(C)[N-]C(=O)C(C)(CNCC(C)(C)[N-]C3=O)OCCCCCCCCCCOC(C)(CNCC(C)(C)[N-]C2=O)C(=O)[N-]1.[Ni+2].[Ni+2]
EC50: > 200 µM

O=C(/C=C\c1ccc(Cl)c(Cl)c1)c1ccc(Cl)cc1Cl
EC50: > 14.5 µM
IC50: > 14.5 µM

N/N=C(/Cc1ccccc1)NNC(N)=S
EC50: > 427 µM
IC50: 263 µM

O=C(Cc1ccccc1)NN1C(=O)C(Cl)C1c1ccccc1O (stereo not drawn)
EC50: > 77.6 µM
IC50: 24.5 µM

O=C(c1ccccc1)c1ccc(SSc2ccc(C(=O)c3ccccc3)cc2[N+](=O)[O-])c([N+](=O)[O-])c1
EC50: > 200 µM
IC50: 13.8 µM

Cc1nc(-c2ccccc2)c(C)n2c1nc1ccccc12
EC50: > 200 µM
IC50: 28.8 µM

Cc1[nH]c2nccn2c(=O)c1CCCl
EC50: > 200 µM
IC50: 11.5 µM

CC(=O)Oc1ccc(O)c(O)c1C/C=C(\C)CC/C=C(\C)CC/C=C(\C)CCC=C(C)C
outcome: inactive

CC1=C(C(=O)Nc2ccccc2C)C(c2ccc(N(C)C)cc2)C(C(=O)Nc2ccccc2C)=C(C)N1
EC50: > 14.5 µM
IC50: > 14.5 µM

Clc1cccc(C2SCc3nc4ccccc4n32)c1 (stereo not drawn)
outcome: inactive

CC1(C)CC[C@]2(C(=O)O)C(O)CC3(C)C(=CCC4[C@@]5(C)CC[C@H](OS(=O)(=O)O)C(C)(C)C5CC[C@]43C)[C@@H]2C1 (stereo partly drawn)
EC50: > 219 µM
IC50: > 219 µM

CCC(C)C1NC(=O)C(CC(C)C)NC(=O)C(C(C)C)NC(=O)C2CSSCC(NC1=O)C(=O)N2 (stereo not drawn) (cyclo(CCVLI); disulfide 1-2; configuration not given here)
EC50: > 2 µM
IC50: 0.339 µM

CC[n+]1c(/C=C/c2ccc(N(CCCl)CCCl)cc2)ccc2cc(NC(=O)/C=C/c3ccccc3)ccc21
outcome: inactive

Nc1c(N=Nc2ccc(-c3ccc(N=Nc4cc(S(=O)(=O)O)c5ccccc5c4O)cc3)cc2)cc(S(=O)(=O)O)c2ccccc12
EC50: 9.12 µM
IC50: > 100 µM

CCOC(=O)C1Cc2c(n(C3CCCCC3)c(=O)n(C)c2=O)OC1c1ccccc1 (stereo not drawn)
EC50: > 63.1 µM
IC50: 29.5 µM

Cc1cc(S(=O)(=O)Nc2nc3ccccc3c(=O)n2N)c(S)cc1Cl
EC50: 40.7 µM
IC50: 77.6 µM

Cn1c2ccccc2c(=O)c2c(O)cc3c(c21)C=CC1(CCCCC1)O3
EC50: > 200 µM
IC50: > 200 µM

COC(=O)c1cc(=O)nc(N/N=C/c2ccccc2O)s1
EC50: > 85.1 µM
IC50: 57.5 µM

COc1ccc(C(=O)/C=C/c2ccc(OCC(=O)N3CCN(c4ccccc4)CC3)cc2)cc1
EC50: > 29.5 µM
IC50: > 29.5 µM

O=C1N/C(=C\[N+](=O)[O-])c2ccccc21
EC50: > 501 µM
IC50: 263 µM

COC(=O)c1cc(C)n(NC(=O)OC(C)(C)C)c1C
EC50: > 251 µM
IC50: > 251 µM

CC(Sc1ccccc1)C(=O)N1CCCC1 (stereo not drawn)
EC50: > 100 µM
IC50: > 100 µM

CN1C/C(=C\c2cccs2)C(=O)/C(=C/c2cccs2)C1
EC50: > 200 µM
IC50: 14.1 µM

CN(N)/N=N/c1nc[nH]c1[N+](=O)[O-]
EC50: > 200 µM
IC50: 5.62 µM

O=C1c2cc([N+](=O)[O-])ccc2-c2ccc3c4ccc5c6c(ccc(c7ccc1c2c73)c64)C(=O)c1cc([N+](=O)[O-])ccc1-5
EC50: > 100 µM
IC50: > 100 µM

O=C1C(=O)N(c2ccc(Cl)c(Cl)c2)C(=O)C(=O)C1c1nc2ccccc2s1
outcome: inactive

Cc1ccc(N/C(Sc2ccccc2)=C(/C(Cl)=C(Cl)Cl)[N+](=O)[O-])c(C)c1
EC50: > 200 µM
IC50: 27.5 µM
